# Measured values: US20110118350A1, “COMPOSITION FOR PREVENTING CARDIOVASCULAR EVENT IN HIGH-RISK PATIENT” (MOCHIDA PHARMACEUTICAL CO., LTD., priority 2008, published 2011)
# Assay: Plasma OA/SA ratio in DELIS trial patients (fatty acid composition of plasma)
# Format: in vivo, human
# Settings: for OA/SA ratio in plasma, Average: statin base drug
# Source text: The ratio of oleic acid (OA) to stearic acid (SA) in plasma can be calculated by collecting blood from a patient and measuring the levels of the individual fatty acids such as OA and SA or the ratio of the individual fatty acids in the total fatty acids by, for example, gas chromatography. The OA/SA ratio can be also calculated from the individual fatty acid levels obtained by performing a clinical test item, that is, fractionation of fatty acids in total lipids which can be performed by, for example, SRL, Inc. The measurement method and calculation method are not particularly limited. The fatty acid fractionation into 24 fractions is a testing method which involves fractionating fatty acids including unsaturated fatty acids into specific 24 fractions and quantitatively determining the fractions by gas chromatography. More specifically, the plasma fatty acids are extracted by the method of, for example, Folch et al. (Folch J. et al., J. Biol. Chem. 226, 497-509 (1957)). It is possible to use tricosanoic acid (C23:0) as an internal standard, to convert each fatty acid into a methyl ester by addition of boron trifluoride and methanol, and to quantitatively determine the methyl ester of each fatty acid by measurement using a gas chromatograph such as SHIMAZU GC-17A (Shimadzu Corporation) and a capillary column such as BPX70 (with an internal diameter of 0.25 mm and a length of 30 m; SGE International Ltd.). However, this is not the sole method of the invention. This trial corresponds to a partial analysis of the results obtained in DELIS (Japan EPA Lipid Intervention Study) which is a large scale clinical trial of high purity EPA preparation which was presented in the American College of Cardiology 2005 Annual Meeting (for general information on DELIS, see Lancet, vol. 369, pp. 1090-1098 (2007)). […]
structure (smiles),measurement,setting,value
"CC/C=C\C/C=C\C/C=C\C/C=C\C/C=C\CCCC(=O)OCC [EPA-E, ethyl icosapentate]",change of OA/SA ratio in plasma,after the administration of EPA-E,significant decrease
same,"OA/SA ratio in plasma, Average",before start of trial,2.96
same,"OA/SA ratio in plasma, Average","during whole observation period, Epadel 600 mg 3 times a day oral",2.78
